Source: patent US9695481B2, “Polynucleotides comprising a reporter sequence operatively linked to a regulatory element” (UNIVERSITEIT LEIDEN, priority 2010, dated 2017)
Entries after “also recorded” stand apart in the source; their conditions may differ. Structures can show the parent of a compound that is named as a salt. Where two headings read alike, the source gives them in different places.

What was measured:
[1] = system: Bscl2-GFP mES reporter cells; assay: Bscl2-GFP genotoxicity reporter; conditions: for Bscl2-GFP reporter induction: 24 h exposure
[2] = system: mouse ES cell lines containing a DsRed fluorescent reporter
[3] = system: Bscl2-GFP and Srxn1-GFP mES reporter cells
[4] = system: mouse ES cell lines containing a DsRed fluorescent reporter; conditions: cited from earlier work
[5] = system: Srxn1-GFP mES reporter cells; assay: Srxn1-GFP oxidative stress reporter; conditions: for Srxn1-GFP reporter induction: 24 h exposure, flow cytometry
[6] = Genotoxicity profile; data extracted from Kirkland et al. 2008; cited from earlier work
[7] = system: Salmonella; conditions: cited from earlier work
[8] = cited from earlier work
[9] = system: Srxn1-GFP mES reporter cells
[10] = from which GFP reporter is induced
[11] = Genotoxicity profile, data extracted from Kirkland et al. 2008

Cc1c2ccccc2c(C)c2c1ccc1ccccc12 [dimethylbenz(a)antracene]
Bscl2-GFP reporter induction with metabolic activation ([1]; 3 h with/without S9 rat liver extract, GFP after 24 h, flow cytometry): induced expression of the Bscl2-GFP reporter only when incubated in the presence of rat S9 mix | survival of Bscl2-GFP reporter cells after S9-dependent activation ([1]; fraction of intact cells, flow cytometry): reduced survival

Cc1cccc(Nc2cc(Cl)nc(SCC(=O)O)n2)c1C [Wyeth-14,643]
DsRed reporter expression/activation [2]: did not induce any reporter activation

N.N.[Cl][Pt][Cl] [Cisplatin]
Bscl2-GFP/Srxn1-GFP GFP Induction [3]: Pos. (considered positive when exposure to at least two different concentrations of a compound resulted in >1.5 fold induction of GFP expression) | GFP expression in Srxn1, Bscl2 and Btg2 GFP reporter cell lines ([3]; BAC TransgeneOmics lines, 30 hrs exposure, flow cytometry): increased | mES DsRed reporters ([4]; Hendriks et al. 2011): Pos. | Srxn1-GFP reporter induction, live cell imaging ([5]; 5 uM CisPt or 100 uM DEM, up to 24 h): hardly responsive | Srxn1-GFP reporter induction ([5]; listed as CisPt): also induced by the genotoxic compounds, albeit to a lesser extent; also recorded: slightly activated | Srxn1-GFP reporter induction (mRNA) ([5]; quantitative RT-PCR, 8 or 16 h): somewhat responsive | time at which Bscl2-GFP expression became visible ([1]; 5 uM CisPt, live cell imaging): 12 h | DsRed reporter expression/activation [2]: clear induction of DsRed expression | mRNA expression of Ephx1-DsRed reporter and endogenous Ephx1 gene ([2]; quantitative RT-PCR, up to 24 h): transcriptionally activated

CN[C@@H]1C[C@H]2O[C@@](C)([C@@H]1OC)n1c3ccccc3c3c4c(c5c6ccccc6n2c5c31)C(=O)N[C@@H]4O [UCN-01]
effect on Bscl2-GFP reporter activation by CisPt or Aph ([1]; 10 uM CisPt or 1.5 uM Aph, 24 h, flow cytometry): almost completely be repressed

[Cl][Cd][Cl] [Cadmium Chloride]
In vitro genotoxicity [6]: Pos. | Ames test [7]: Pos. | Bscl2-GFP/Srxn1-GFP GFP Induction [3]: Pos. (considered positive when exposure to at least two different concentrations of a compound resulted in >1.5 fold induction of GFP expression) | Bscl2-GFP/Srxn1-GFP Prim. toxic properties [3, 10]: Pro-oxidant | mES DsRed reporters ([4]; Hendriks et al. 2011): Pos. | Srxn1-GFP reporter induction [5]: Specific activation; also recorded: highly responsive | Srxn1-GFP reporter induction ([5]; listed as CdCl2): strong, concentration-dependent increase in expression of the GFP reporter | In vivo genotoxicity [8, 11]: Pos.

COc1cc([C@@H]2c3cc4c(cc3[C@@H](O[C@@H]3O[C@@H]5CO[C@@H](C)O[C@H]5[C@H](O)[C@H]3O)[C@H]3COC(=O)[C@H]23)OCO4)cc(OC)c1O [Etoposide]
Srxn1-GFP reporter induction [9]: also induced by the genotoxic compounds, albeit to a lesser extent | In vitro genotoxicity [6]: Pos. | Bscl2-GFP/Srxn1-GFP Prim. toxic properties [3]: Genotoxin | In vivo genotoxicity [8, 11]: Pos.

aflatoxin B1
Bscl2-GFP reporter induction with metabolic activation [1]: induced expression of the Bscl2-GFP reporter only when incubated in the presence of rat S9 mix

CC(=O)N[C@@H](CS)C(=O)O [NAC, N-acetyl cysteine]
effect of scavenger alone on cell viability and reporter activity ([3]; data not shown): did not affect cell viability or reporter activity | effect on Srxn1-GFP reporter activation by pro-oxidants ([5]; co-incubation with DEM, CuSO4, NaAsO2, CdCl2 or MMS, 24 h): completely inhibited activation of the reporter | effect on Srxn1-GFP reporter activation by CisPt ([5]; data not shown): significantly reduced reporter activation

COc1cccc2c1C(=O)c1c(O)c3c(c(O)c1C2=O)C[C@@](O)(C(=O)CO)C[C@@H]3O[C@H]1C[C@H](N)[C@H](O)[C@H](C)O1 [Doxorubicin]
Srxn1-GFP reporter induction [9]: also induced by the genotoxic compounds, albeit to a lesser extent | In vitro genotoxicity [6]: Pos. | Ames test [7, 11]: Pos. | Bscl2-GFP/Srxn1-GFP Prim. toxic properties [3]: Genotoxin | GFP expression in Srxn1, Bscl2 and Btg2 GFP reporter cell lines [3]: increased | mES DsRed reporters ([4]; Hendriks et al. 2011): Pos. | In vivo genotoxicity [8, 11]: Pos.

Mitomycin C
Srxn1-GFP reporter induction [9]: also induced by the genotoxic compounds, albeit to a lesser extent | Bscl2-GFP/Srxn1-GFP GFP Induction [3]: Pos. (key: Pos.: considered positive when exposure to at least two different concentrations of a compound resulted in >1.5 fold induction of GFP expression) | Bscl2-GFP/Srxn1-GFP Prim. toxic properties [3]: Genotoxin | GFP expression in Srxn1, Bscl2 and Btg2 GFP reporter cell lines [3]: increased

CCCOC(=O)c1cc(O)c(O)c(O)c1 [Propyl gallate]
In vitro genotoxicity [6]: Pos. | Ames test [7, 11]: Neg. | Bscl2-GFP/Srxn1-GFP Prim. toxic properties [3]: Equivocal | mES DsRed reporters ([4]; Hendriks et al. 2011): Pos. | In vivo genotoxicity [8, 11]: Equivocal

COS(C)(=O)=O [MMS, methyl methanesulphonate]
Ames test [7, 11]: Pos. | Bscl2-GFP/Srxn1-GFP GFP Induction [3]: Pos. (considered positive when exposure to at least two different concentrations of a compound resulted in >1.5 fold induction of GFP expression) | Bscl2-GFP/Srxn1-GFP Prim. toxic properties [3, 10]: Pro-oxidant | mES DsRed reporters [4]: Pos. | In vivo genotoxicity ([8]; in vivo): Pos. | DsRed reporter expression/activation [2]: clear induction of DsRed expression

CC/C(=C(/CC)c1ccc(O)cc1)c1ccc(O)cc1 [diethylstilbestrol]
DsRed reporter expression/activation [2]: did not induce any reporter activation

O=[As]O [Sodium arsenite]
In vitro genotoxicity [6]: Pos. | Ames test [7, 11]: Neg. | Bscl2-GFP/Srxn1-GFP GFP Induction [3]: Pos. (considered positive when exposure to at least two different concentrations of a compound resulted in >1.5 fold induction of GFP expression) | Bscl2-GFP/Srxn1-GFP Prim. toxic properties [3, 10]: Pro-oxidant | mES DsRed reporters ([4]; Hendriks et al. 2011): Pos. | Srxn1-GFP reporter induction [5]: Specific activation; also recorded: highly responsive | Srxn1-GFP reporter induction ([5]; listed as NaAsO2): strong, concentration-dependent increase in expression of the GFP reporter; also recorded: preferentially induced | Bscl2-GFP reporter induction ([1]; flow cytometry): hardly responded | Bscl2-GFP reporter induction ([1]; flow cytometry, listed as NaAsO2): not induced | In vivo genotoxicity [8, 11]: Pos.

Nc1ccccc1C(=O)O [o-anthranilic acid]
In vitro genotoxicity [6]: Pos. | Ames test [7, 11]: Neg. | Bscl2-GFP/Srxn1-GFP GFP Induction [3]: Neg. | mES DsRed reporters ([4]; Hendriks et al. 2011): Pos. | In vivo genotoxicity [8, 11]: Neg.

C[C@@]1(CO)[C@H](O)CC[C@@]2(C)[C@H]1CC[C@H]1C[C@@H]3C[C@@]12CC[C@]3(O)CO [Aph, aphidicolin]
Srxn1-GFP reporter induction [5]: slight reporter activation; also recorded: slightly activated | Bscl2-GFP reporter induction ([1]; flow cytometry): significant induction of GFP expression

CCOC(=O)/C=C\C(=O)OCC [Diethyl maleate]
Srxn1-GFP reporter induction (mRNA) [9]: highly induced | Bscl2-GFP/Srxn1-GFP Prim. toxic properties [3]: Pro-oxidant | GFP expression in Srxn1, Bscl2 and Btg2 GFP reporter cell lines [3]: increased | mES DsRed reporters ([4]; Hendriks et al. 2011): Pos. | exposure time after which Srxn1-GFP expression reached a plateau ([5]; 100 uM DEM, live cell imaging): 24 h | exposure time after which Srxn1-GFP expression was clearly detectable ([5]; 100 uM DEM, live cell imaging): 8 h | DsRed reporter expression/activation [2]: clear induction of DsRed expression

CC(C)(C)c1cc(O)ccc1O [Tert-butylhydroquinone]
In vitro genotoxicity [6]: Pos. | Ames test [7, 11]: Neg. | Bscl2-GFP/Srxn1-GFP Prim. toxic properties [3]: Pro-oxidant | mES DsRed reporters ([4]; Hendriks et al. 2011): Pos. | In vivo genotoxicity [8, 11]: Neg.
